The CheMixHub ionic liquid set
± gives the uncertainty stated by the source.

Test: xn = mol fraction of the nth substance listed

CCOS(=O)(=O)[O-].CC[n+]1ccn(C)c1 + O
Details | electrical conductivity [S/m] | viscosity [mPa·s]
283.15 K, 101 kPa, x2 = 0.1966 | – | 136.9 ± 2.3
283.15 K, 101 kPa, x2 = 0.6124 | – | 32.65 ± 0.29
288.15 K, 100 kPa, x1 = 0.0005131 | – | 1.163 ± 0.0071
288.15 K, 100 kPa, x1 = 0.0008362 | – | 1.177 ± 0.0072
288.15 K, 100 kPa, x1 = 0.001227 | – | 1.193 ± 0.0073
288.15 K, 100 kPa, x1 = 0.002025 | – | 1.227 ± 0.0075
288.15 K, 100 kPa, x1 = 0.002516 | – | 1.25 ± 0.0077
288.15 K, 100 kPa, x1 = 0.003482 | – | 1.292 ± 0.008
288.15 K, 100 kPa, x1 = 0.00456 | – | 1.342 ± 0.0083
288.15 K, 100 kPa, x1 = 0.006613 | – | 1.426 ± 0.009
288.15 K, 100 kPa, x1 = 0.008007 | – | 1.491 ± 0.0096
288.15 K, 100 kPa, x1 = 0.009969 | – | 1.577 ± 0.01
288.15 K, 100 kPa, x1 = 0.01406 | – | 1.777 ± 0.013
288.15 K, 100 kPa, x1 = 0.0162 | – | 1.889 ± 0.014
293.15 K, 100 kPa, x1 = 0.0005131 | – | 1.012 ± 0.0063
293.15 K, 100 kPa, x1 = 0.0008362 | – | 1.024 ± 0.0064
293.15 K, 100 kPa, x1 = 0.002516 | – | 1.092 ± 0.0068
293.15 K, 100 kPa, x1 = 0.003482 | – | 1.129 ± 0.0071
293.15 K, 100 kPa, x1 = 0.00456 | – | 1.171 ± 0.0073
293.15 K, 100 kPa, x1 = 0.006613 | – | 1.247 ± 0.008
293.15 K, 100 kPa, x1 = 0.008007 | – | 1.295 ± 0.0084
293.15 K, 100 kPa, x1 = 0.009969 | – | 1.365 ± 0.0091
293.15 K, 100 kPa, x1 = 0.01406 | – | 1.508 ± 0.011
293.15 K, 100 kPa, x1 = 0.0162 | – | 1.597 ± 0.012
293.15 K, 101 kPa, x2 = 0.0023 | – | 133.9 ± 2.3
293.15 K, 101 kPa, x2 = 0.1225 | – | 99.1 ± 1.4
298.15 K, 100 kPa, x1 = 0.0005131 | – | 0.9026 ± 0.0057
298.15 K, 100 kPa, x1 = 0.0008362 | – | 0.9136 ± 0.0058
298.15 K, 100 kPa, x1 = 0.001227 | – | 0.929 ± 0.0059
298.15 K, 100 kPa, x1 = 0.002025 | – | 0.9545 ± 0.006
298.15 K, 100 kPa, x1 = 0.002516 | – | 0.9707 ± 0.0061
298.15 K, 100 kPa, x1 = 0.003482 | – | 1.004 ± 0.0063
298.15 K, 100 kPa, x1 = 0.00456 | – | 1.039 ± 0.0066
298.15 K, 100 kPa, x1 = 0.006613 | – | 1.1 ± 0.0071
298.15 K, 100 kPa, x1 = 0.008007 | – | 1.141 ± 0.0075
298.15 K, 100 kPa, x1 = 0.009969 | – | 1.201 ± 0.0081
298.15 K, 100 kPa, x1 = 0.01406 | – | 1.322 ± 0.0096
298.15 K, 100 kPa, x1 = 0.0162 | – | 1.392 ± 0.011
298.15 K, 101 kPa, x1 = 0.003 | 0.74 ± 0.03 | –
298.15 K, 101 kPa, x1 = 0.047 | 4 ± 0.2 | –
298.15 K, 101 kPa, x2 = 0.1608 | – | 70 ± 19
298.15 K, 101.3 kPa, x1 = 0.01871 | 3.26 ± 0.33 | –
298.15 K, 101.3 kPa, x2 = 0 | 0.398 ± 0.04 | –
298.15 K, 101.3 kPa, x2 = 0.8489 | 3.85 ± 0.39 | –
298.15 K, 101.3 kPa, x2 = 0.9291 | 4.45 ± 0.45 | –
298.15 K, 101.3 kPa, x2 = 0.9684 | 3.95 ± 0.4 | –
298.15 K, 101.3 kPa, x2 = 0.9752 | 3.66 ± 0.37 | –
303.15 K, 100 kPa, x1 = 0.0005131 | – | 0.8072 ± 0.0052
303.15 K, 100 kPa, x1 = 0.0008362 | – | 0.8175 ± 0.0052
303.15 K, 100 kPa, x1 = 0.001227 | – | 0.8288 ± 0.0053
303.15 K, 100 kPa, x1 = 0.002025 | – | 0.8498 ± 0.0054
303.15 K, 100 kPa, x1 = 0.002516 | – | 0.8628 ± 0.0055
303.15 K, 100 kPa, x1 = 0.003482 | – | 0.8878 ± 0.0057
303.15 K, 100 kPa, x1 = 0.00456 | – | 0.9163 ± 0.0059
303.15 K, 100 kPa, x1 = 0.006613 | – | 0.9752 ± 0.0064
303.15 K, 100 kPa, x1 = 0.008007 | – | 1.01 ± 0.0067
303.15 K, 100 kPa, x1 = 0.01406 | – | 1.156 ± 0.0085
308.15 K, 100 kPa, x1 = 0.0005131 | – | 0.7285 ± 0.0047
308.15 K, 100 kPa, x1 = 0.0008362 | – | 0.7368 ± 0.0048
308.15 K, 100 kPa, x1 = 0.001227 | – | 0.7453 ± 0.0048
308.15 K, 100 kPa, x1 = 0.002025 | – | 0.7648 ± 0.005
308.15 K, 100 kPa, x1 = 0.002516 | – | 0.774 ± 0.005
308.15 K, 100 kPa, x1 = 0.003482 | – | 0.7947 ± 0.0052
308.15 K, 100 kPa, x1 = 0.00456 | – | 0.8202 ± 0.0054
308.15 K, 100 kPa, x1 = 0.006613 | – | 0.8682 ± 0.0058
308.15 K, 100 kPa, x1 = 0.008007 | – | 0.8953 ± 0.006
308.15 K, 100 kPa, x1 = 0.009969 | – | 0.9332 ± 0.0064
308.15 K, 100 kPa, x1 = 0.01406 | – | 1.02 ± 0.0075
308.15 K, 100 kPa, x1 = 0.0162 | – | 1.066 ± 0.0082
313.15 K, 100 kPa, x1 = 0.0005131 | – | 0.6616 ± 0.0044
313.15 K, 100 kPa, x1 = 0.0008362 | – | 0.669 ± 0.0044
313.15 K, 100 kPa, x1 = 0.001227 | – | 0.6761 ± 0.0045
313.15 K, 100 kPa, x1 = 0.002025 | – | 0.6922 ± 0.0046
313.15 K, 100 kPa, x1 = 0.002516 | – | 0.7008 ± 0.0046
313.15 K, 100 kPa, x1 = 0.003482 | – | 0.7189 ± 0.0047
313.15 K, 100 kPa, x1 = 0.00456 | – | 0.7368 ± 0.0049
313.15 K, 100 kPa, x1 = 0.006613 | – | 0.7779 ± 0.0052
313.15 K, 100 kPa, x1 = 0.008007 | – | 0.8031 ± 0.0055
313.15 K, 100 kPa, x1 = 0.009969 | – | 0.8366 ± 0.0058
313.15 K, 100 kPa, x1 = 0.01406 | – | 0.9075 ± 0.0068
313.15 K, 100 kPa, x1 = 0.0162 | – | 0.9429 ± 0.0073
313.15 K, 101 kPa, x1 = 0.003 | 0.97 ± 0.04 | –
313.15 K, 101 kPa, x1 = 0.008 | 2.5 ± 0.1 | –
313.15 K, 101 kPa, x1 = 0.013 | 3.4 ± 0.1 | –
313.15 K, 101 kPa, x1 = 0.019 | 3.9 ± 0.2 | –
313.15 K, 101 kPa, x1 = 0.151 | 4.7 ± 0.2 | –
313.15 K, 101 kPa, x1 = 0.642 | 1.4 ± 0.1 | –
318.15 K, 100 kPa, x1 = 0.0005131 | – | 0.6014 ± 0.004
318.15 K, 100 kPa, x1 = 0.0008362 | – | 0.6088 ± 0.0041
318.15 K, 100 kPa, x1 = 0.001227 | – | 0.6154 ± 0.0041
318.15 K, 100 kPa, x1 = 0.002025 | – | 0.6285 ± 0.0042
318.15 K, 100 kPa, x1 = 0.002516 | – | 0.6341 ± 0.0043
318.15 K, 100 kPa, x1 = 0.003482 | – | 0.6498 ± 0.0044
318.15 K, 100 kPa, x1 = 0.00456 | – | 0.6693 ± 0.0045
318.15 K, 100 kPa, x1 = 0.006613 | – | 0.6989 ± 0.0048
318.15 K, 100 kPa, x1 = 0.008007 | – | 0.7189 ± 0.005
318.15 K, 100 kPa, x1 = 0.009969 | – | 0.7489 ± 0.0053
318.15 K, 100 kPa, x1 = 0.01406 | – | 0.8092 ± 0.0061
318.15 K, 100 kPa, x1 = 0.0162 | – | 0.8249 ± 0.0065
323.15 K, 100 kPa, x1 = 0.0005131 | – | 0.5543 ± 0.0038
323.15 K, 100 kPa, x1 = 0.0008362 | – | 0.5575 ± 0.0038
323.15 K, 100 kPa, x1 = 0.001227 | – | 0.5629 ± 0.0038
323.15 K, 100 kPa, x1 = 0.002025 | – | 0.5726 ± 0.0039
323.15 K, 100 kPa, x1 = 0.002516 | – | 0.5798 ± 0.004
323.15 K, 100 kPa, x1 = 0.003482 | – | 0.592 ± 0.004
323.15 K, 100 kPa, x1 = 0.00456 | – | 0.6071 ± 0.0042
323.15 K, 100 kPa, x1 = 0.006613 | – | 0.6309 ± 0.0044
323.15 K, 100 kPa, x1 = 0.008007 | – | 0.6496 ± 0.0046
323.15 K, 100 kPa, x1 = 0.009969 | – | 0.672 ± 0.0048
323.15 K, 100 kPa, x1 = 0.01406 | – | 0.7192 ± 0.0055
323.15 K, 100 kPa, x1 = 0.0162 | – | 0.7349 ± 0.0059
323.15 K, 101 kPa, x2 = 0.427 | – | 14.57 ± 0.14
328.15 K, 100 kPa, x1 = 0.0005131 | – | 0.5096 ± 0.0035
328.15 K, 100 kPa, x1 = 0.0008362 | – | 0.5125 ± 0.0036
328.15 K, 100 kPa, x1 = 0.001227 | – | 0.5161 ± 0.0036
328.15 K, 100 kPa, x1 = 0.002025 | – | 0.5251 ± 0.0036
328.15 K, 100 kPa, x1 = 0.002516 | – | 0.5307 ± 0.0037
328.15 K, 100 kPa, x1 = 0.003482 | – | 0.5404 ± 0.0038
328.15 K, 100 kPa, x1 = 0.00456 | – | 0.5521 ± 0.0039
328.15 K, 100 kPa, x1 = 0.006613 | – | 0.5713 ± 0.004
343.15 K, 101 kPa, x2 = 0.0023 | – | 19.63 ± 0.25
343.15 K, 101 kPa, x2 = 0.1966 | – | 14.47 ± 0.16
343.15 K, 101 kPa, x2 = 0.427 | – | 8.918 ± 0.087

CC[n+]1ccn(C)c1.[Br-] + O
viscosity [mPa·s], 100 kPa
Details | 288.15 K | 298.15 K | 303.15 K | 308.15 K | 318.15 K | 333.15 K
x1 = 0.0001802 | 1.141 ± 0.043 | 0.911 ± 0.043 | – | 0.744 ± 0.043 | 0.627 ± 0.042 | –
x1 = 0.0007203 | 1.147 ± 0.044 | 0.916 ± 0.043 | – | 0.748 ± 0.043 | 0.632 ± 0.042 | –
x1 = 0.00126 | 1.152 ± 0.044 | 0.923 ± 0.043 | – | 0.754 ± 0.043 | 0.639 ± 0.042 | –
x1 = 0.049 | – | – | 1.48 ± 0.15 | – | – | 0.797 ± 0.08
x1 = 0.1978 | – | – | 5.45 ± 0.55 | – | – | –
